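Compound exposure: 48 hours, 5 concentrations, 96-well plates. The concentration for 50% growth inhibition is given as GI50. TGI denotes the concentration required for complete inhibition of growth.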
What was measured:
Experiment in all cases: NCI-60 cell line screen, 48 h
[1] = tested on: MCF7 breast
[2] = tested on: BT-549 breast
[3] = tested on: MDA-MB-231 breast
[4] = tested on: SNB-78 CNS
[5] = tested on: DMS 114 small cell lung
[6] = tested on: LXFL 529 NSCLC
[7] = tested on: DLD-1 colon
[8] = tested on: MDA-N

Structure (SMILES)	GI50 [1] [µM]	TGI [1] [µM]	GI50 [2] [µM]	TGI [2] [µM]	GI50 [3] [µM]	TGI [3] [µM]	TGI [4] [µM]	TGI [5] [µM]	TGI [6] [µM]	TGI [7] [µM]	TGI [8] [µM]
Cc1cc(C(=O)Nc2ncc(Cc3cccc(C(F)(F)F)c3)s2)c2ccccc2n1	0.579	> 100	3.61	> 100							
COc1ccc(Nc2c3ccccc3nc3occc23)cc1	0.682	36.1	18.4	45.8	3.66	22.7					
CS/C(N)=N\NC(=O)CCC(=O)Nc1ccccc1C(F)(F)F							> 100	> 100	> 100	> 100	
O=C1OC(c2ccccc2)=N/C1=C\c1cccc2ccccc12							> 100	> 100	> 100	> 100	
CC(C)n1nc(-c2cc3cc(O)ccc3[nH]2)c2c(N)ncnc21	0.128	7.86	0.147	1.85	0.296	17.4					
CC(C)C(Nc1c2ccccc2nc2ccccc12)C(=O)O (stereo unspecified)									> 100	> 100	
COc1cc2ncnc(Nc3ccc(C)c(O)c3)c2cc1OC	> 25	> 25	12.4	> 25	17.1	> 25					
COC(=O)C1=C(C)N(NC(=O)OC(C)(C)C)C(=O)C1=P(c1ccccc1)(c1ccccc1)c1ccccc1							> 100	> 100	> 100	> 100	
Cc1cc(S(=O)(=O)Nc2nnc(-c3ccccc3)c(-c3ccccc3)n2)c(SCC(N)=O)cc1Cl	36.4	> 100	27.4	90.6	36.3	> 100					
CC(C)(C)c1cc(C(C)(C)C)cc(S(=O)(=O)Nc2cc3ccccc3cc2C(=O)NCCN)c1	1.53	2.95	1.67	3.09							
COc1cc(C=C2C(=O)NC(=O)NC2=O)cc(OC)c1OC							> 100	> 100	> 100	> 100	
c1cc(CNC23CC4CC(CC(C4)C2)C3)cc(C[N+](Cc2cccc(CNC34CC5CC(CC(C5)C3)C4)c2)(Cc2cccc(CNC34CC5CC(CC(C5)C3)C4)c2)Cc2cccc(CNC34CC5CC(CC(C5)C3)C4)c2)c1 (stereo unspecified)	4.46	25.9	4.27	11.6	8.73	31					
c1ccc(CNn2nnc3ccccc32)cc1							> 100	> 100	> 100	> 100	
Nn1c(=O)n(Cc2ccccc2)n(-c2ccccc2)c1=O							> 100		> 100	> 100	
CC(C)(C)c1cc(Br)c(O)c(CN(Cc2cc(C(C)(C)C)cc(Br)c2O)C2CCCCC2)c1		26.8		29.2		28.2					27.6
COC(=O)[C@H](C)NC(=O)NC(=O)NC(=O)CI	10.2	29.8	15	28.6	18.8	37.9					
O=C(Cc1ccccc1)NN1C(=O)C(Cl)C1c1cc(Br)ccc1O (stereo unspecified)							91.8	8.77	> 100	> 100	
COc1cc2c(cc1OC)C(CC(=O)NN=C(C)C)NCC2 (stereo unspecified)							> 100	> 100	> 100	> 100	

Structure (SMILES)	GI50 [1] [µM]	TGI [1] [µM]	GI50 [2] [µM]	TGI [2] [µM]	GI50 [3] [µM]	TGI [3] [µM]	TGI [4] [µM]	TGI [5] [µM]	TGI [6] [µM]	TGI [7] [µM]	TGI [8] [µM]
COc1cc2c3c(n(CCCNC(=O)OCC4c5ccccc5-c5ccccc54)c(=O)c2cc1OC)-c1cc2c(cc1/C3=C\CCNC(=O)OCC1c3ccccc3-c3ccccc31)OCO2		> 18.5	12.4	> 50	> 19	> 44					
CCOC(=O)C1=C(C)N(NC(=O)Nc2ccccc2)C(=O)C1=P(c1ccccc1)(c1ccccc1)c1ccccc1								> 100	> 100	> 100	
COC(C(O)CO)C(O)C(O)C(=O)NNc1ccccc1 (stereo unspecified)		> 100		> 100		> 100					> 100
Oc1cccnc1CN1CCCCC1		> 100		> 100		> 100					> 100
CCOC(=O)CC1(C(=O)OCC)c2[nH]c3ccccc3c2CCN1Cc1ccccc1 (stereo unspecified)							81.2	38.6	> 100	89.4	
NP(=O)(Oc1c2occc2cc2ccc(=O)oc12)N(CCCl)CCCl (stereo unspecified)		> 100		> 100		> 100					> 100
Clc1ccc(C2=Nn3c(COc4ccccc4Cl)nnc3SC2)c(Cl)c1	11	> 100	18.8	54.2	18.5	48.6					
O=C(N/N=C/c1ccc(Cl)cc1)c1ccc(C(F)(F)F)nc1Nc1cccc(C(F)(F)F)c1	2.26	10.8	2.72	11.7	2.22	8.83					
COc1ccc(/C=C/c2ccnc3ccccc23)c(OC)c1		> 10		> 10		> 10					> 10
COc1ccccc1CCc1cc(OC)c(OC)c(OC)c1							> 100	> 100	> 100	> 100	
C1=CC2SSSC2C1 (stereo unspecified)								> 100	> 100	> 100	
Cc1cc(Cl)ccc1N=C1NC(=O)C(CC(=O)Nc2ccc([N+](=O)[O-])cc2[N+](=O)[O-])S1 (stereo unspecified)							73.6	49.9	47.5	> 100	
OC[C@H]1CCCC1O (stereo partly specified)		> 100		> 100		> 100					> 100
N=C1C(c2nc3ccccc3s2)=C(O)CN1c1cc(C(F)(F)F)ccc1Cl	16.9	92.1	43.4	> 100	12.1	95.7					
COC1=C(C)C(=O)c2c(c(COC(N)=O)c3n2CC2C3N2C)C1=O (stereo unspecified)		< 0.027		0.167		0.409					0.136
Cc1ccc(C(=O)CN(/C=C/C(=O)C(F)(F)F)c2ccc(S(N)(=O)=O)cc2)cc1	59.8	> 100	58.9	> 100	> 100	> 100					
CCOC(=O)c1c(C)n(Cc2ccc(Cl)cc2Cl)c2c1c(CN(C)C)c(O)c1[nH]cnc12			23.6	48.5	16.3	31.9					
